Laboratory results reported in paper PMC10882719 (Frontiers in Neuroscience, 2024).
Where two headings read alike, the source gives them in different places.

Legend:
Assay type in all cases: cell-based
168 GPCRs [1] = biological target: T1, 168 GPCRs (Homo sapiens, UniProt P30939); settings: HTR1F
T1 construct: host or cells: PathHunter cell lines
T1 sequence (P30939 1-366): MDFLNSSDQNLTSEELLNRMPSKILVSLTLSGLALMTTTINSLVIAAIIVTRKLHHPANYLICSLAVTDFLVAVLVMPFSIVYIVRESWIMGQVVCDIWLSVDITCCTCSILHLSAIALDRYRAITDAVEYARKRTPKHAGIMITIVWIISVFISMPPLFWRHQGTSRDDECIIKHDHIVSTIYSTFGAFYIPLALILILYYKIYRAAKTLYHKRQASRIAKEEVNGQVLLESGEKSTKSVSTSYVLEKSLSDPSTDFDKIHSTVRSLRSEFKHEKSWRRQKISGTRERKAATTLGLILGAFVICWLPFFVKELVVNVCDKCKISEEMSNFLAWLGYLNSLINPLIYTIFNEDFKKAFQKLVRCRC

168 GPCRs [2] = biological target: T2, 168 GPCRs (Homo sapiens, UniProt P32248)
T2 construct: host or cells: PathHunter cell lines
T2 sequence (P32248 25-378): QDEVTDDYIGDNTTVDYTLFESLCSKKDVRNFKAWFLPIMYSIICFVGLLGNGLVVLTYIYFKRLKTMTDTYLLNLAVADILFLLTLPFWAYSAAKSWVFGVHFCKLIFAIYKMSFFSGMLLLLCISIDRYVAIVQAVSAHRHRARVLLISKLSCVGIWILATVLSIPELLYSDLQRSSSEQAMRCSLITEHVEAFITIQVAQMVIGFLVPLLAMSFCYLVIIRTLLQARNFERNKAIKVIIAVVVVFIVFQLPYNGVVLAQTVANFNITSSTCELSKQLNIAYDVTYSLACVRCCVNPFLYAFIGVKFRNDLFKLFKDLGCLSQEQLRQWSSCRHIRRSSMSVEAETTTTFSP

168 GPCRs [3] = biological target: T3, 168 GPCRs (Homo sapiens, UniProt P28336); settings: NMBR
T3 construct: host or cells: PathHunter cell lines
T3 sequence (P28336 whole entry): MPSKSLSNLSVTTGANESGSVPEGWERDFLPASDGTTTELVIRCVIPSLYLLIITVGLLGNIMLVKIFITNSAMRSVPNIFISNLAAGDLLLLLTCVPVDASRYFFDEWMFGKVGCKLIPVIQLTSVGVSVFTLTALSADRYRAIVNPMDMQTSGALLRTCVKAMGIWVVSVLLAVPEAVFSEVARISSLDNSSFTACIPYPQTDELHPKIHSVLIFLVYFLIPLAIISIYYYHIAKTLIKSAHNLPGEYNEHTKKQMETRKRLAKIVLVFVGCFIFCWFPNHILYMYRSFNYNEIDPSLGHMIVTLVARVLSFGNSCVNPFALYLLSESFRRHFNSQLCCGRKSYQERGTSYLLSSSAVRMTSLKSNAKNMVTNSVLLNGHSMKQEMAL

168 GPCRs [4] = biological target: T4, 168 GPCRs (Homo sapiens, UniProt P43220); settings: GLP1R
T4 construct: host or cells: PathHunter cell lines
T4 sequence (P43220 24-463): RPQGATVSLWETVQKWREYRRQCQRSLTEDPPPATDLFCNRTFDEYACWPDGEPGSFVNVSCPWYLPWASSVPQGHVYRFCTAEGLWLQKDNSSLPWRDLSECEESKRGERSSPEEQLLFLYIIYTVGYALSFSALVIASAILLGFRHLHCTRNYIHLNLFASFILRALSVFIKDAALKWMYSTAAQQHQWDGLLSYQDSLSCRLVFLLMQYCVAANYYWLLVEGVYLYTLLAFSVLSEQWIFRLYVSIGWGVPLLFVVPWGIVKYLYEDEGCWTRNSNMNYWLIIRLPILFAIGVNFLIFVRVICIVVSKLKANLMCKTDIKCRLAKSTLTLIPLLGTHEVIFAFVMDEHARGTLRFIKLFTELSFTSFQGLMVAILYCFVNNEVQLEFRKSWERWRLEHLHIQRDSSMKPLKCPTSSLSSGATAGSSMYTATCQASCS

168 GPCRs [5] = biological target: T5, 168 GPCRs (Homo sapiens, UniProt Q9H3N8)
T5 construct: host or cells: PathHunter cell lines
T5 sequence (Q9H3N8 whole entry): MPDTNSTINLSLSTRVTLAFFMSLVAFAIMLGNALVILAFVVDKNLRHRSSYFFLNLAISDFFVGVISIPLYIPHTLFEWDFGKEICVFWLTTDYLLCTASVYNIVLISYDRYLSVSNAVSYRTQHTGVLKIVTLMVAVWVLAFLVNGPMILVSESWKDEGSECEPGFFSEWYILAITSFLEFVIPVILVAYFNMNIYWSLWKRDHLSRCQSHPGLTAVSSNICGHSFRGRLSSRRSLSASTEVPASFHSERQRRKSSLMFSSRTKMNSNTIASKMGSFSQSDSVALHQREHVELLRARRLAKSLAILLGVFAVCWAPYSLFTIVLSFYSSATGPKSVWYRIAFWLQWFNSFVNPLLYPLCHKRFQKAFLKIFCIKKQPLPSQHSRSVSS

168 GPCRs [6] = biological target: T6, 168 GPCRs (Homo sapiens, UniProt P49682)
T6 construct: host or cells: PathHunter cell lines
T6 sequence (P49682 1-368): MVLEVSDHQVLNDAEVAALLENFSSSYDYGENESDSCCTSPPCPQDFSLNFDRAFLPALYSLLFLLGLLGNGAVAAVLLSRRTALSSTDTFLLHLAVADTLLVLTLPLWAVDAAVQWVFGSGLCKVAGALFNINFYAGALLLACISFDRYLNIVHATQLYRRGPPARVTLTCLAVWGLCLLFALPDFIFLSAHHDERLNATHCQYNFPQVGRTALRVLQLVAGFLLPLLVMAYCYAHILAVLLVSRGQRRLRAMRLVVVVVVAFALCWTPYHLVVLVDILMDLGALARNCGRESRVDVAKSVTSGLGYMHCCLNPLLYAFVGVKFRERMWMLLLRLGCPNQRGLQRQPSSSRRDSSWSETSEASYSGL

168 GPCRs [7] = biological target: T7, 168 GPCRs (Homo sapiens, UniProt P49190); settings: PTHR2
T7 construct: host or cells: PathHunter cell lines
T7 sequence (P49190 25-550): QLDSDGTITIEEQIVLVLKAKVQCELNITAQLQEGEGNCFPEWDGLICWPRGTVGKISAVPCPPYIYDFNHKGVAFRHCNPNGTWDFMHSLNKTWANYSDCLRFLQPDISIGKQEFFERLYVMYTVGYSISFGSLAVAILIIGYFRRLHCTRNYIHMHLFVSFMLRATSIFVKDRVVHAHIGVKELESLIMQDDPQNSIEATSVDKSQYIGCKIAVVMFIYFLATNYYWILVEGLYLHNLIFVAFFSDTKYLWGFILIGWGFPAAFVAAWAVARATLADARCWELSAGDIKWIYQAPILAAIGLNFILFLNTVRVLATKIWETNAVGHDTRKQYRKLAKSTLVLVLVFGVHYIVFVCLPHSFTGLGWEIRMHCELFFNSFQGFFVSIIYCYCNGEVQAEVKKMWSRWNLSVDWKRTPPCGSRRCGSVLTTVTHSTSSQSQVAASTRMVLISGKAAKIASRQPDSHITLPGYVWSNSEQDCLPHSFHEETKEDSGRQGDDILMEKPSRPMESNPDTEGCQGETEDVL

168 GPCRs [8] = biological target: T8, 168 GPCRs (Homo sapiens, UniProt P43088); settings: PTGFR
T8 construct: host or cells: PathHunter cell lines
T8 sequence (P43088 whole entry): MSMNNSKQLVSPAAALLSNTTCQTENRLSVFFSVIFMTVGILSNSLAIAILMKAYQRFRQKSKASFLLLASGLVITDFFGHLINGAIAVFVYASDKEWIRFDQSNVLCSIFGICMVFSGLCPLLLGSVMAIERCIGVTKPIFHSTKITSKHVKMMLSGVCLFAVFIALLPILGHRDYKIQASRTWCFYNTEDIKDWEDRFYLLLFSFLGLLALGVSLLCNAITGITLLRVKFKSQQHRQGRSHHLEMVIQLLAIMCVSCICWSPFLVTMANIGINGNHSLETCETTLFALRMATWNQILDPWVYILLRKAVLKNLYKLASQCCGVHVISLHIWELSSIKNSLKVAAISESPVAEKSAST

168 GPCRs [9] = biological target: T9, 168 GPCRs (Homo sapiens, UniProt P34981); settings: TRHR
T9 construct: host or cells: PathHunter cell lines
T9 sequence (P34981 1-398): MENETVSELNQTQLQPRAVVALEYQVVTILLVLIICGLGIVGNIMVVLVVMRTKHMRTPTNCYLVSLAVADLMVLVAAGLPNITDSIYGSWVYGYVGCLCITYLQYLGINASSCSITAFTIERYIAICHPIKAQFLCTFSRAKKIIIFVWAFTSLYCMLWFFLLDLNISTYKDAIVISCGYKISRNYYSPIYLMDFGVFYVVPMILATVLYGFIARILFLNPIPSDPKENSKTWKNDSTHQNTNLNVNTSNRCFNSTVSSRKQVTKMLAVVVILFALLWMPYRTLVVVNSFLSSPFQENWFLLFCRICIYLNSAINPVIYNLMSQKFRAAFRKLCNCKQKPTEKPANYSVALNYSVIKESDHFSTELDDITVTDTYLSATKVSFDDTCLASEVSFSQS

Compound	% Agonist Activity (168 GPCRs [1]; 1 uM)	% Antagonist Activity (168 GPCRs [1]; 1 uM)	% Agonist Activity (168 GPCRs [1]; 10 uM)	% Antagonist Activity (168 GPCRs [1]; 10 uM)	% Agonist Activity (168 GPCRs [2]; CCR7, 1 uM)	% Antagonist Activity (168 GPCRs [2]; CCR7, 1 uM)	% Agonist Activity (168 GPCRs [2]; CCR7, 10 uM)	% Antagonist Activity (168 GPCRs [2]; CCR7, 10 uM)	% Agonist Activity (168 GPCRs [3]; 1 uM)	% Antagonist Activity (168 GPCRs [3]; 1 uM)	% Agonist Activity (168 GPCRs [3]; 10 uM)	% Antagonist Activity (168 GPCRs [3]; 10 uM)	% Agonist Activity (168 GPCRs [4]; 1 uM)	% Antagonist Activity (168 GPCRs [4]; 1 uM)	% Agonist Activity (168 GPCRs [4]; 10 uM)	% Antagonist Activity (168 GPCRs [4]; 10 uM)	% Agonist Activity (168 GPCRs [5]; HRH4, 1 uM)	% Antagonist Activity (168 GPCRs [5]; HRH4, 1 uM)	% Agonist Activity (168 GPCRs [5]; HRH4, 10 uM)	% Antagonist Activity (168 GPCRs [5]; HRH4, 10 uM)	further results
CNC(C)Cc1ccc2c(c1)OCO2 (stereo not drawn) [MDMA, 3,4-Methylenedioxy methamphetamine, reference compound]	10.9%	14.6%	8.5%	10.8%	1.9%	1.5%	2.6%	6.8%	0%	-2.5%	0.1%	4.3%	-0.4%	9.5%	-0.2%	12.9%	1.9%	14.5%	3.1%	14.5%	% Agonist Activity (168 GPCRs [6]; CXCR3, 1 uM): -3.7%; % Antagonist Activity (168 GPCRs [6]; CXCR3, 1 uM): 11.3%; % Agonist Activity (168 GPCRs [6]; CXCR3, 10 uM): -4.7%; % Antagonist Activity (168 GPCRs [6]; CXCR3, 10 uM): 17.9%; % Agonist Activity (168 GPCRs [7]; Conc 1 uM): 0.2%; % Antagonist Activity (168 GPCRs [7]; Conc 1 uM): 2.9%; % Agonist Activity (168 GPCRs [7]; Conc 10 uM): 0.5%; % Antagonist Activity (168 GPCRs [7]; Conc 10 uM): 7%; % Agonist Activity (168 GPCRs [8]; Conc 1 uM): -1.5%; % Antagonist Activity (168 GPCRs [8]; Conc 1 uM): -1.5%; % Agonist Activity (168 GPCRs [8]; Conc 10 uM): -0.4%; % Antagonist Activity (168 GPCRs [8]; Conc 10 uM): 7.8%; % Agonist Activity (168 GPCRs [9]; Conc 1 uM): -0.4%; % Antagonist Activity (168 GPCRs [9]; Conc 1 uM): 16.2%; % Agonist Activity (168 GPCRs [9]; Conc 10 uM): -0.1%; % Antagonist Activity (168 GPCRs [9]; Conc 10 uM): 9.9%
CNC(C)C(=O)c1ccc2c(c1)OCO2 (stereo not drawn) [methylone]	-4.4%	14.4%	-3%	9.2%	-3.4%	-8.3%	-3.7%	-3.4%	1.1%	10.3%	1.2%	13.2%	-0.3%	3.4%	-0.1%	-0.9%	8.6%	-11.6%	9%	-14%	% Agonist Activity (168 GPCRs [6]; CXCR3, 1 uM): -0.2%; % Antagonist Activity (168 GPCRs [6]; CXCR3, 1 uM): 4.5%; % Agonist Activity (168 GPCRs [6]; CXCR3, 10 uM): 1.6%; % Antagonist Activity (168 GPCRs [6]; CXCR3, 10 uM): -3.9%; % Agonist Activity (168 GPCRs [7]; Conc 1 uM): -0.6%; % Antagonist Activity (168 GPCRs [7]; Conc 1 uM): -1%; % Agonist Activity (168 GPCRs [7]; Conc 10 uM): -0.5%; % Antagonist Activity (168 GPCRs [7]; Conc 10 uM): -0.2%; % Agonist Activity (168 GPCRs [8]; Conc 1 uM): 0.3%; % Antagonist Activity (168 GPCRs [8]; Conc 1 uM): 0.9%; % Agonist Activity (168 GPCRs [8]; Conc 10 uM): -0.2%; % Antagonist Activity (168 GPCRs [8]; Conc 10 uM): 0%; % Agonist Activity (168 GPCRs [9]; Conc 1 uM): -2%; % Antagonist Activity (168 GPCRs [9]; Conc 1 uM): -7.2%; % Agonist Activity (168 GPCRs [9]; Conc 10 uM): -2.2%; % Antagonist Activity (168 GPCRs [9]; Conc 10 uM): 2.8%
